According to US9868772B2 (INDIANA UNIVERSITY RESEARCH AND TECHNOLOGY CORPORATION, priority 2012, dated 2018):
Numbered stars: 1 amine (or outer) side, 2 acyl side, 3 side chain; on linkers, the order of the positions; unused ones are H or OH. Square brackets hold non-standard residues; d marks the D form. Side chains are listed from the residue outwards. Peptide text beside a SMILES is read from it. * marks the point of attachment. γGlu = O=C(O)[C@H](CCC(=O)[*:2])N[*:1]; Palmitoyl = CCCCCCCCCCCCCCCC(=O)*; 2Thi = N[C@@H](Cc1cccs1)C(=O)O; βAla = NCCC(=O)O; Sar = CNCC(=O)O

Tests used:
Test in all cases: cAMP induction, firefly luciferase reporter assay in HEK293 cells co-transfected with receptor
Type in all cases: cell-based
GIP receptor = molecular target: T1, GIP receptor (Homo sapiens, UniProt P48546)
T1 construct: expressed in transfected cells; host or cells: HEK293
T1 sequence (P48546 22-466): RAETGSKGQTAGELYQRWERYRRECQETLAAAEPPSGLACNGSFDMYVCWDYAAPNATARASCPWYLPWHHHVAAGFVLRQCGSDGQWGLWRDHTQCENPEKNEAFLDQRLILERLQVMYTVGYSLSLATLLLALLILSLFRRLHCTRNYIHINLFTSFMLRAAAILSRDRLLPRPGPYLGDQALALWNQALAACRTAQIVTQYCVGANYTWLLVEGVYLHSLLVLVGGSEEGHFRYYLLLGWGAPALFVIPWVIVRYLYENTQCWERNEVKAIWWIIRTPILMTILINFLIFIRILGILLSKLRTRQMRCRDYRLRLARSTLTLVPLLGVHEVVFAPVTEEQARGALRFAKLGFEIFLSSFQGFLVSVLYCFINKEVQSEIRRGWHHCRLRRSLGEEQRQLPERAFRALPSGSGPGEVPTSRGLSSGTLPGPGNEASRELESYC
Description: (§1) The ability of glucagon analogs to induce cAMP was measured in a firefly luciferase-based reporter assay. […] At the end of the incubation 100 microliters of LucLite luminescence substrate reagent (Perkin-Elmer, Wellesley, Mass.) were added to each well. […] Effective 50% concentrations were calculated by using Origin software (OriginLab, Northampton, Mass.

glucagon receptor = molecular target: T2, glucagon receptor (Homo sapiens, UniProt P47871)
T2 construct: expressed in transfected cells; host or cells: HEK293
T2 sequence (P47871 26-477): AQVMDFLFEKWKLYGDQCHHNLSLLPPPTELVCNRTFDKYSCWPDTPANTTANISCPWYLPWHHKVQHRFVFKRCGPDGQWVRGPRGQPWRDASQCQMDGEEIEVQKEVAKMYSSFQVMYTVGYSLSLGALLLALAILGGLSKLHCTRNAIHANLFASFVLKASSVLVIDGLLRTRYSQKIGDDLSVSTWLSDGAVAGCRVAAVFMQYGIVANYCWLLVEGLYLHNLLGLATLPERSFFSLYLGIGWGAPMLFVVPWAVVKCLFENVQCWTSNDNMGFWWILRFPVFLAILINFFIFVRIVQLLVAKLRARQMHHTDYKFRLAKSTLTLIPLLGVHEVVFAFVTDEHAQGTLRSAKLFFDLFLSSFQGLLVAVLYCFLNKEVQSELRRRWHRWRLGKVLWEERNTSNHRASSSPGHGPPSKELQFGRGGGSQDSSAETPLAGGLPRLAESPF
Description: as §1

GLP-1 receptor = molecular target: T3, GLP-1 receptor (Homo sapiens, UniProt P43220)
T3 construct: expressed in transfected cells; host or cells: HEK293
T3 sequence (P43220 24-463): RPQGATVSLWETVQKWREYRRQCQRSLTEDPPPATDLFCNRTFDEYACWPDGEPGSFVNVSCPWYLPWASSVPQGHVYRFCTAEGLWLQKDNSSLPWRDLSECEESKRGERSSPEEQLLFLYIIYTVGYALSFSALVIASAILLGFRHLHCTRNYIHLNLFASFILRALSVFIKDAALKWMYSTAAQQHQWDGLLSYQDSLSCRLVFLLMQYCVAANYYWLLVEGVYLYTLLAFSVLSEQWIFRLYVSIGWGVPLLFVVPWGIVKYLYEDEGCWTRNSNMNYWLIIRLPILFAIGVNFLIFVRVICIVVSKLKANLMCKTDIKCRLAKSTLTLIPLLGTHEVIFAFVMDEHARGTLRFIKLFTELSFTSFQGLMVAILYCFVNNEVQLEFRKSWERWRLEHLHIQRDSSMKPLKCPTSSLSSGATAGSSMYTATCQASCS
Description: as §1

[1] = Table 1, analogs of SEQ ID NO: 37
[2] = Table 2, analogs of SEQ ID NO: 10

CCCCCCCCCCCCCCCC(=O)N[C@@H](CCC(=O)NCCCC[C@H](NC(=O)[C@H](CC(=O)O)NC(=O)[C@H](CO)NC(=O)[C@@H](NC(=O)[C@H](Cc1ccccc1)NC(=O)[C@@H](NC(=O)CNC(=O)[C@H](CCC(N)=O)NC(=O)CCNC(=O)[C@@H](N)Cc1c[nH]cn1)[C@@H](C)O)[C@@H](C)O)C(=O)N[C@@H](CO)C(=O)N[C@@H](CCCCN)C(=O)N[C@@H](Cc1ccc(O)cc1)C(=O)N[C@@H](CC(C)C)C(=O)N[C@@H](CC(=O)O)C(=O)N[C@@H](CCC(=O)O)C(=O)N[C@@H](CCCNC(=N)N)C(=O)N[C@@H](C)C(=O)N[C@@H](C)C(=O)N[C@@H](CCC(N)=O)C(=O)N[C@@H](CC(=O)O)C(=O)N[C@@H](Cc1ccccc1)C(=O)N[C@H](C(=O)N[C@@H](CCC(N)=O)C(=O)N[C@@H](Cc1c[nH]c2ccccc12)C(=O)N[C@@H](CC(C)C)C(=O)N[C@@H](CC(C)C)C(=O)N[C@@H](CCC(=O)O)C(=O)NCC(=O)NCC(=O)N1CCC[C@H]1C(=O)N[C@@H](CO)C(=O)N[C@@H](CO)C(=O)NCC(=O)N[C@@H](C)C(=O)N1CCC[C@H]1C(=O)N1CCC[C@H]1C(=O)N1CCC[C@H]1C(=O)N[C@@H](CO)C(N)=O)C(C)C)C(=O)O [compound 26] (H-H[βAla]QGTFTSDK([γGlu-Palmitoyl])SKYLDERAAQDFVQWLLEGGPSSGAPPPS-NH2)
EC50 (GIP receptor; [1]): 0.071 nM
EC50 (glucagon receptor; [1]): 0.095 nM
EC50 (GLP-1 receptor; [1]): 0.002 nM

CCCCCCCCCCCCCCCC(=O)N[C@@H](CCC(=O)NCCCC[C@H](NC(=O)[C@H](CC(=O)O)NC(=O)[C@H](CO)NC(=O)[C@@H](NC(=O)[C@H](Cc1ccccc1)NC(=O)[C@@H](NC(=O)CNC(=O)[C@H](CCC(N)=O)NC(=O)[C@H](C)NC(=O)C(CN)Cc1c[nH]cn1)[C@@H](C)O)[C@@H](C)O)C(=O)N[C@@H](CO)C(=O)N[C@@H](CCCCN)C(=O)N[C@@H](Cc1ccc(O)cc1)C(=O)N[C@@H](CC(C)C)C(=O)N[C@@H](CC(=O)O)C(=O)N[C@@H](CCC(=O)O)C(=O)N[C@@H](CCCNC(=N)N)C(=O)N[C@@H](C)C(=O)N[C@@H](C)C(=O)N[C@@H](CCC(N)=O)C(=O)N[C@@H](CC(=O)O)C(=O)N[C@@H](Cc1ccccc1)C(=O)N[C@H](C(=O)N[C@@H](CCC(N)=O)C(=O)N[C@@H](Cc1c[nH]c2ccccc12)C(=O)N[C@@H](CC(C)C)C(=O)N[C@@H](CC(C)C)C(=O)N[C@@H](CCC(=O)O)C(=O)NCC(=O)NCC(=O)N1CCC[C@H]1C(=O)N[C@@H](CO)C(=O)N[C@@H](CO)C(=O)NCC(=O)N[C@@H](C)C(=O)N1CCC[C@H]1C(=O)N1CCC[C@H]1C(=O)N1CCC[C@H]1C(=O)N[C@@H](CO)C(N)=O)C(C)C)C(=O)O (some centres unmarked) [compound 25]
EC50 (GIP receptor; [1]): 0.064 nM
EC50 (glucagon receptor; [1]): 0.024 nM
EC50 (GLP-1 receptor; [1]): 0.003 nM

CCCCCCCCCCCCCCCC(=O)N[C@@H](CCC(=O)NCCCC[C@H](NC(=O)[C@H](CC(=O)O)NC(=O)[C@H](CO)NC(=O)[C@@H](NC(=O)[C@H](Cc1ccccc1)NC(=O)[C@@H](NC(=O)CNC(=O)[C@H](CCC(N)=O)NC(=O)CNC(=O)[C@@H](N)Cc1cccs1)[C@@H](C)O)[C@@H](C)O)C(=O)N[C@@H](CO)C(=O)N[C@@H](CCCCN)C(=O)N[C@@H](Cc1ccc(O)cc1)C(=O)N[C@@H](CC(C)C)C(=O)N[C@@H](CC(=O)O)C(=O)N[C@@H](CCC(=O)O)C(=O)N[C@@H](CCCNC(=N)N)C(=O)N[C@@H](C)C(=O)N[C@@H](C)C(=O)N[C@@H](CCC(N)=O)C(=O)N[C@@H](CC(=O)O)C(=O)N[C@@H](Cc1ccccc1)C(=O)N[C@H](C(=O)N[C@@H](CCC(N)=O)C(=O)N[C@@H](Cc1c[nH]c2ccccc12)C(=O)N[C@@H](CC(C)C)C(=O)N[C@@H](CC(C)C)C(=O)N[C@@H](CCC(=O)O)C(=O)NCC(=O)NCC(=O)N1CCC[C@H]1C(=O)N[C@@H](CO)C(=O)N[C@@H](CO)C(=O)NCC(=O)N[C@@H](C)C(=O)N1CCC[C@H]1C(=O)N1CCC[C@H]1C(=O)N1CCC[C@H]1C(=O)N[C@@H](CO)C(N)=O)C(C)C)C(=O)O [compound 29] (H-[2Thi]GQGTFTSDK([γGlu-Palmitoyl])SKYLDERAAQDFVQWLLEGGPSSGAPPPS-NH2; N-terminus assumed)
EC50 (GIP receptor; [1]): 0.095 nM
EC50 (glucagon receptor; [1]): 0.038 nM
EC50 (GLP-1 receptor; [1]): 0.007 nM

CCCCCCCCCCCCCCCC(=O)N[C@@H](CCC(=O)NCCCC[C@H](NC(=O)[C@H](CC(=O)O)NC(=O)[C@H](CO)NC(=O)[C@@H](NC(=O)[C@H](Cc1ccccc1)NC(=O)[C@@H](NC(=O)CNC(=O)[C@H](CCC(N)=O)NC(=O)[C@H](C)NC(=O)[C@H](Cc1ccc(O)cc1)NC(C)=O)[C@@H](C)O)[C@@H](C)O)C(=O)N[C@@H](CO)C(=O)N[C@@H](CCCCN)C(=O)N[C@@H](Cc1ccc(O)cc1)C(=O)N[C@@H](CC(C)C)C(=O)N[C@@H](CC(=O)O)C(=O)N[C@@H](CCC(=O)O)C(=O)N[C@@H](CCCNC(=N)N)C(=O)N[C@@H](C)C(=O)N[C@@H](C)C(=O)N[C@@H](CCC(N)=O)C(=O)N[C@@H](CC(=O)O)C(=O)N[C@@H](Cc1ccccc1)C(=O)N[C@H](C(=O)N[C@@H](CCC(N)=O)C(=O)N[C@@H](Cc1c[nH]c2ccccc12)C(=O)N[C@@H](CC(C)C)C(=O)N[C@@H](CC(C)C)C(=O)N[C@@H](CCC(=O)O)C(=O)NCC(=O)NCC(=O)N1CCC[C@H]1C(=O)N[C@@H](CO)C(=O)N[C@@H](CO)C(=O)NCC(=O)N[C@@H](C)C(=O)N1CCC[C@H]1C(=O)N1CCC[C@H]1C(=O)N1CCC[C@H]1C(=O)N[C@@H](CO)C(N)=O)C(C)C)C(=O)O [compound 155] (Ac-YAQGTFTSDK([γGlu-Palmitoyl])SKYLDERAAQDFVQWLLEGGPSSGAPPPS-NH2)
EC50 (GIP receptor; [2]): 0.037 nM
EC50 (glucagon receptor; [2]): 0.007 nM
EC50 (GLP-1 receptor; [2]): 0.06 nM

CCCCCCCCCCCCCCCC(=O)N[C@@H](CCC(=O)NCCCC[C@H](NC(=O)[C@H](CC(=O)O)NC(=O)[C@H](CO)NC(=O)[C@@H](NC(=O)[C@H](Cc1ccccc1)NC(=O)[C@@H](NC(=O)CNC(=O)[C@H](CCC(N)=O)NC(=O)C(C)(C)NC(=O)[C@@H](N)Cc1c[nH]cn1)[C@@H](C)O)[C@@H](C)O)C(=O)N[C@@H](CO)C(=O)N[C@@H](CCCCN)C(=O)N[C@@H](Cc1ccc(O)cc1)C(=O)N[C@@H](CC(C)C)C(=O)N[C@@H](CC(=O)O)C(=O)N[C@@H](CCC(=O)O)C(=O)N[C@@H](CCCNC(=N)N)C(=O)N[C@@H](C)C(=O)N[C@@H](C)C(=O)N[C@@H](CCC(N)=O)C(=O)N[C@@H](CC(=O)O)C(=O)N[C@@H](Cc1ccccc1)C(=O)N[C@H](C(=O)N[C@@H](CCC(N)=O)C(=O)N[C@@H](Cc1c[nH]c2ccccc12)C(=O)N[C@@H](CC(C)C)C(=O)N[C@@H](CC(C)C)C(=O)N[C@@H](CC(=O)O)C(=O)NCC(=O)NCC(=O)N1CCC[C@H]1C(=O)N[C@@H](CO)C(=O)N[C@@H](CO)C(=O)NCC(=O)N[C@@H](C)C(=O)N1CCC[C@H]1C(=O)N1CCC[C@H]1C(=O)N1CCC[C@H]1C(=O)N[C@@H](CO)C(N)=O)C(C)C)C(=O)O [compound 10]
EC50 (glucagon receptor; [1]): 0.005 nM
EC50 (GLP-1 receptor; [1]): 0.005 nM

CCCCCCCCCCCCCCCC(=O)N[C@@H](CCC(=O)NCCCC[C@H](NC(=O)[C@H](CC(=O)O)NC(=O)[C@H](CO)NC(=O)[C@@H](NC(=O)[C@H](Cc1ccccc1)NC(=O)[C@@H](NC(=O)CNC(=O)[C@H](CCC(N)=O)NC(=O)[C@H](C)NC(=O)[C@H](N)Cc1ccc(O)cc1)[C@@H](C)O)[C@@H](C)O)C(=O)N[C@@H](CO)C(=O)N[C@@H](CCCCN)C(=O)N[C@@H](Cc1ccc(O)cc1)C(=O)N[C@@H](CC(C)C)C(=O)N[C@@H](CC(=O)O)C(=O)N[C@@H](CCC(=O)O)C(=O)N[C@@H](CCCNC(=N)N)C(=O)N[C@@H](C)C(=O)N[C@@H](C)C(=O)N[C@@H](CCC(N)=O)C(=O)N[C@@H](CC(=O)O)C(=O)N[C@@H](Cc1ccccc1)C(=O)N[C@H](C(=O)N[C@@H](CCC(N)=O)C(=O)N[C@@H](Cc1c[nH]c2ccccc12)C(=O)N[C@@H](CC(C)C)C(=O)N[C@@H](CC(C)C)C(=O)N[C@@H](CCC(=O)O)C(=O)NCC(=O)NCC(=O)N1CCC[C@H]1C(=O)N[C@@H](CO)C(=O)N[C@@H](CO)C(=O)NCC(=O)N[C@@H](C)C(=O)N1CCC[C@H]1C(=O)N1CCC[C@H]1C(=O)N1CCC[C@H]1C(=O)N[C@@H](CO)C(N)=O)C(C)C)C(=O)O [compound 15]
EC50 (GIP receptor; [1]): 0.008 nM
EC50 (glucagon receptor; [1]): 0.05 nM
EC50 (GLP-1 receptor; [1]): 0.004 nM

CCCCCCCCCCCCCCCC(=O)N[C@@H](CCC(=O)NCCCC[C@H](NC(=O)[C@H](CC(=O)O)NC(=O)[C@H](CO)NC(=O)[C@@H](NC(=O)[C@H](Cc1ccccc1)NC(=O)[C@@H](NC(=O)CNC(=O)[C@H](CCC(N)=O)NC(=O)CN(C)C(=O)[C@@H](N)Cc1c[nH]cn1)[C@@H](C)O)[C@@H](C)O)C(=O)N[C@@H](CO)C(=O)N[C@@H](CCCCN)C(=O)N[C@@H](Cc1ccc(O)cc1)C(=O)N[C@@H](CC(C)C)C(=O)N[C@@H](CC(=O)O)C(=O)N[C@@H](CCC(=O)O)C(=O)N[C@@H](CCCNC(=N)N)C(=O)N[C@@H](C)C(=O)N[C@@H](C)C(=O)N[C@@H](CCC(N)=O)C(=O)N[C@@H](CC(=O)O)C(=O)N[C@@H](Cc1ccccc1)C(=O)N[C@H](C(=O)N[C@@H](CCC(N)=O)C(=O)N[C@@H](Cc1c[nH]c2ccccc12)C(=O)N[C@@H](CC(C)C)C(=O)N[C@@H](CC(C)C)C(=O)N[C@@H](CCC(=O)O)C(=O)NCC(=O)NCC(=O)N1CCC[C@H]1C(=O)N[C@@H](CO)C(=O)N[C@@H](CO)C(=O)NCC(=O)N[C@@H](C)C(=O)N1CCC[C@H]1C(=O)N1CCC[C@H]1C(=O)N1CCC[C@H]1C(=O)N[C@@H](CO)C(N)=O)C(C)C)C(=O)O [compound 28] (H-H[Sar]QGTFTSDK([γGlu-Palmitoyl])SKYLDERAAQDFVQWLLEGGPSSGAPPPS-NH2)
EC50 (GIP receptor; [1]): 0.081 nM
EC50 (glucagon receptor; [1]): 0.022 nM
EC50 (GLP-1 receptor; [1]): 0.002 nM
